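In this assay, cells in 96-well plates receive the compound at five concentrations for 48 hours. Endpoints are linearly interpolated between the surrounding concentrations. At the GI50, growth is halved. TGI marks complete inhibition of growth.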
How the values were obtained:
Assay in all cases: inhibition of tumour cell growth, NCI panel, 48 h
RPMI-8226 leukemia = tested on: RPMI-8226 leukemia
RXF 393 renal = tested on: RXF 393 renal
UACC-62 melanoma = tested on: UACC-62 melanoma
OVCAR-4 ovarian = tested on: OVCAR-4 ovarian
K-562 leukemia = tested on: K-562 leukemia
EKVX NSCLC = tested on: EKVX NSCLC
ACHN renal = tested on: ACHN renal
SW-620 colon = tested on: SW-620 colon
NCI/ADR-RES ovarian = tested on: NCI/ADR-RES ovarian
MDA-MB-435 = tested on: MDA-MB-435

SMILES | TGI (RPMI-8226 leukemia) [µM] | TGI (RXF 393 renal) [µM] | TGI (UACC-62 melanoma) [µM] | TGI (OVCAR-4 ovarian) [µM] | TGI (K-562 leukemia) [µM] | TGI (EKVX NSCLC) [µM] | TGI (ACHN renal) [µM] | TGI (SW-620 colon) [µM] | TGI (NCI/ADR-RES ovarian) [µM] | TGI (MDA-MB-435) [µM] | GI50 (NCI/ADR-RES ovarian) [µM] | GI50 (RXF 393 renal) [µM] | GI50 (OVCAR-4 ovarian) [µM] | GI50 (MDA-MB-435) [µM] | GI50 (EKVX NSCLC) [µM] | GI50 (ACHN renal) [µM] | GI50 (SW-620 colon) [µM]
COc1cc(OC)c2c(O)cc(CC(C)O)cc2c1 (configuration not stated) | > 100 | > 100 | > 100 | > 100 | > 100 | > 100 | > 100 | > 100 |  |  |  |  |  |  |  |  | 
O=c1[nH]nc(Cc2ccccc2)n1/N=C/c1c[nH]c2ccccc12 | > 100 |  | > 100 | > 100 | > 100 | > 100 | > 100 | > 100 | > 100 | > 100 |  |  |  |  |  |  | 
CC(=O)OC[C@H]1O[C@@H](O[C@H]2[C@H](OC(C)=O)C=CO[C@@H]2COC(C)=O)C(OC(C)=O)[C@H]2OC(C)(C)O[C@H]21 (some centres not stated) |  | > 100 | > 100 | > 100 | > 100 | > 100 | > 100 | > 100 | > 100 | > 100 |  |  |  |  |  |  | 
Cc1ccc2c(=O)cc(-c3csc4ccccc34)[nH]c2n1 | 15 |  | > 76.8 |  | > 39.7 |  | 12.9 | > 100 | 0.569 | < 0.01 |  |  |  |  |  |  | 
COC(=O)CCCc1ccc2c(c1)CC1(C2)Cc2cc3c(cc2C1)CCCC3 | 85.2 | 94.2 | 67 | > 100 | 52.5 | > 100 | > 100 |  | > 100 | 40.3 |  |  |  |  |  |  | 
Cc1nc2ccc(S(=O)(=O)Nc3ccc(Cl)cc3)cc2c(=O)n1NC(=O)CNc1ccc(Cl)cc1 | > 100 |  | > 100 | > 100 | > 100 | > 100 | > 100 | > 100 | > 100 | > 100 |  |  |  |  |  |  | 
Oc1ccc(/C=C\c2nnc(/C=C\c3ccc(O)c(O)c3)s2)cc1O |  | 18.5 | 14 | 16 | > 27.9 | > 54.6 | 15.2 | 13.3 | > 59.2 | 15.1 |  |  |  |  |  |  | 
CCCCOC(=O)CNC(=O)OCCCCC#CC#CCCCCOC(=O)NCC(=O)OCCCC | > 100 |  | > 100 | > 100 | > 100 | > 100 | > 100 | > 100 |  |  |  |  |  |  |  |  | 
COc1cccc2cc(C)c(C(=O)c3ccccc3)nc12 | > 100 | > 100 | > 100 | > 100 | > 100 | > 100 | > 100 | > 100 |  |  |  |  |  |  |  |  | 
CC(=O)C1CC(C)=CCC12C(=O)Nc1ccccc12 (configuration not stated) | > 100 | 68.9 | > 100 | > 100 | > 100 | > 100 | > 100 | > 100 |  |  |  |  |  |  |  |  | 
COC1=CC(=O)c2ccccc2C1(CCC=C(C)C)C1=NC(C)(C)CO1 (configuration not stated) | > 100 | > 100 | > 100 | > 100 | > 100 | > 100 | > 100 | > 100 |  |  |  |  |  |  |  |  | 
Cc1c(C)c(C)c(-n2[nH]c(=O)n(C)c2=O)c(C)c1C | > 100 |  | > 100 |  | > 100 | > 100 | > 100 | > 100 | > 100 | > 100 |  |  |  |  |  |  | 
O=[N+]([O-])c1cccc(-c2csc(N=Nc3c(O)[nH]c4ccccc34)n2)c1 |  | 77.9 | > 100 | 61.7 |  | 61.8 | > 100 | > 100 | 29.6 | > 100 |  |  |  |  |  |  | 
CCC(CCCN)Nc1cc(OC)cc2cccnc12 (configuration not stated) |  | > 100 | > 100 | > 100 | > 100 | > 100 | > 100 | > 100 | > 100 | > 100 |  |  |  |  |  |  | 
CCC1C(=O)C[C@H]2[C@@H]3C(O)CC4=CC(=O)CC[C@]4(C)[C@H]3CC[C@]12C (some centres not stated) | > 50 |  | > 50 | > 50 | > 50 | > 50 | > 50 | > 50 | > 50 | > 50 |  |  |  |  |  |  | 
COc1ccc2c3c1OC1CC(O)C=CC31CCN(C)C2 (configuration not stated) | > 150 | > 150 | > 150 | > 150 | > 150 | > 150 |  | > 150 | > 150 |  |  |  |  |  |  |  | 
O=C(CSc1nc2ccccc2[nH]1)Nc1ccc(-c2nc3ccccc3s2)c(Cl)c1 |  | 8.85 |  | > 100 |  | > 100 | 57.4 | > 100 | > 100 | > 100 | 4.41 | 2.66 | 2.56 | 3.89 | 6.82 | 4.52 | 4.78

Source: PubChem BioAssay (NCI)
